Assay results taken from the NIST ThermoML archive (doi:10.1021/je300784x).

Conditions: Liquid, Twin ebulliometer

CCOc1ccccc1O [2-ethoxyphenol]
Conditions | vapor or sublimation pressure [kPa]
380.22 K | 2.827
383.28 K | 3.25
386.29 K | 3.72
391.94 K | 4.757
397.4 K | 5.986
402.92 K | 7.506
408.63 K | 9.39
414.5 K | 11.73
418.79 K | 13.71
423.31 K | 16.11
428.48 K | 19.24
436.26 K | 24.89
445.61 K | 33.38
457.01 K | 46.82
486.03 K | 100.76
